Experimental data from US5527900A, “N3-alkyl-2',5'-0-silylated-3'-spiro-thymidine derivatives” (Stitching Rega VZW, priority 1991, dated 1996).
In brackets after ≈: the same amount, converted by molar mass. Like-named read-outs stand apart in the source and are kept apart here.

Experiments:
[1] = test system: HIV-1 (HTLV-IIIB); assay: Anti-retrovirus activity: inhibition of HIV-1-induced cytopathogenicity in MT-4 cells; format: cell-based; conditions: for EC50: Human immunodeficiency virus 1, IIIB, MT4, 120 h; for S.I. (Selectivity Index): CC50/EC50, MT-4 cells
From the text: The viruses used were moloney murine sarcoma virus (MSV), HIV-1 (strain HTLV-IIIB, kindly provided by R. C. Gallo and M. Popovic, National Cancer Institute, Bethesda, Md.), HIV-2 (strain LAV-2(ROD)), kindly provided by L. Montagnier (Pasteur Institute, Paris, France), simian immunodeficiency virus (SIV) (strain SIVMAC251, kindly provided by C. Bruck, RIT-Smith-Kline, Rixensart, Belgium).
(§1) In order to evaluate the inhibitory effects against retrovirus-induced cytopathogenicity in MT-4cells, said cells (5×10^5 cells/ml) were suspended in fresh culture medium and infected with HIV-1, HIV-2 or SIOV at 100 times the cell culture infective dose-50 (CCID50) per ml cell suspension (1 CCID50 being the dose infective for 50% of the cell cultures). Then, 100 μl of the infected cell suspension were transferred to microplate wells, mixed with 100 μl of the appropriate dilutions of the test compounds, and further incubated at 37° C. After 5 days, the number of viable cells was determined in a blood cell-counting chamber by trypan blue staining for both virus-infected and mock-infected cell cultures.

[2] = Cytotoxicity for mock-infected MT-4 cells; conditions: human, mt-4 cells
Procedure: as §1

[3] = Partition coefficient (Pa) between 1-octanol and 10 mM potassium phosphate buffer; format: physicochemical; conditions: 1-octanol / 10 mM potassium phosphate buffer, pH 7.5, 50 μM; for logD at 50 µM: room temperature
Procedure: Partition of the test compounds between 1-octanol (Merck, Darmstadt, Germany) and 10 mM potassium phosphate buffer, pH, 7.5 (Merck), was measured as described in Balzarini et al., Biochem, Biophys. Res. Commun. 158: 413-422 (1989). Briefly, a 50 μM concentration of the test compound in potassium phosphate buffer was thoroughly mixed with an equal volume of 1-octanol for 30 min at room temperature. Then, the mixture was further equilibrated at room temperature and UV absorption was measured for the aqueous and alcoholic liquid phases. The partition coefficient (Pa) was calculated as the ratio of the compound concentration present in the 1-octanol phase to the compound concentration present in the aqueous phase.

[4] = test system: HIV-1; assay: Antiviral activity upon delayed addition to HIV-1-infected MT-4 cells; format: cell-based
Procedure: as §1
Mt-4 cells were suspended in culture medium, infected with HIV-1 and brought into microplate wells as described above. […] After 5 days, the number of viable cells was determined and the EC50 and CC50 values for the test compounds were defined as described in example 1.

[5] = test system: MT-4 cell DNA synthesis; assay: Incorporation of radiolabeled precursors into MT-4 cell DNA; format: cell-based; conditions: Homo sapiens, MT4, MT-4 cells, 20 to 24 hr
From the text: (§2) The radiolabeled nucleosides [methyl-^3 H]dThd (specific radioactivity: 40 Ci/mmol), [5-^3 H]dUrd (specific radioactivity: 27 Ci/mmol), [5-^3 H]dCyc (specific radioactivity: 18.2 Ci/mmol) and the radiolabeled amino acid L-[4,5-^3 H]leucine (specific radioactivity: 52 Ci/mmol were derived from the Radiochemcial Centre (Amersham, England); [5-^3 H]Urd (specific radioactivity: 21 Ci/mmol) and [5-^3 H]Cyd (specific radioactivity: 21 Ci/mmol) and were obtained from Moravek Biochemicals Inc. (Brea, Calif.)
(§3) The incorporation of [methyl-^3 H]dThd, [5-^3 H]dUrd, [5-^3 H]dCyd, [5-^3 H]Urd, [5-^3 H]Cyd and L-[4,5-^3 H]1eu into TCA-insoluble MT-4 cell material was measured in wells of a 96-well microtiter plate (Falcon-3072, Becton-Dickinson, New Jersey). To each well were added 10^5 MT-4 cells, 0.25 μCi of the radiolabeled precursor and a given amount of test compound. The cells were allowed to proliferate for 20 to 24 hr at 37° C. in a humidified, CO2 -controlled atmosphere. At the end of this incubation period, the contents of the wells (200 μl) were brought onto 25-mm glass fiber filters (type A/E, Gelman Instrument Company, Ann Arbor, Mich.), and mounted on a Millipore 3025 sampling manifold apparatus. The filters were washed twice with 2 ml and 5 ml cold NaCl/Pi (phosphte-buffered saline), twice with 2 and 5 ml cold 10% trichloroacetic acid (TCA), twice with 5 and 7.5 ml cold 5% TCA, and twice with 1 ml cold ethanol.

[6] = test system: MT-4 cell RNA synthesis; assay: Incorporation of radiolabeled precursors into MT-4 cell RNA; format: cell-based; conditions: Homo sapiens, MT4, MT-4 cells, 20 to 24 hr
From the text: as §2, §3

[7] = test system: MT-4 cell protein synthesis; assay: Incorporation of radiolabeled leucine into MT-4 cell protein; format: cell-based; conditions: Homo sapiens, MT4; MT-4 cells, 20 to 24 hr; read-out: IC50, L-[4,5-3H]leucine incorporation
From the text: as §2, §3

[8] = test system: HIV-2 strain (EHO); assay: Activity against HIV-2 strain EHO; format: cell-based
[9] = test system: MT-4 cell DNA, RNA or protein synthesis; assay: Incorporation of radiolabeled DNA, RNA or protein precursors into TCA-insoluble MT-4 cell material (summary in words); format: cell-based; conditions: for inhibition of incorporation of dThd, dUrd, dCyd, Urd, Cyd or leucine: at 100 μg/ml
From the text: as §2, §3

[10] = test system: MT-4 cells; assay: Cytotoxicity for mock-infected MT-4 cells; conditions: for cytotoxicity to MT-4 cells (in words): at 100 μg/ml
Procedure: as §1

[11] = read-out: IC50, [5-3H]dCyd incorporation
[12] = read-out: IC50, [5-3H]dUrd incorporation
[13] = read-out: IC50, [methyl-3H]dThd incorporation
[14] = read-out: IC50, [5-3H]Cyd incorporation
[15] = read-out: IC50, [5-3H]Urd incorporation

SMILES | EC50 [1] [µg/mL] | S.I. (Selectivity Index) ([1]; Table 1) | CC50 at 120 h [2] [µg/mL] | presence in the n-octanol phase compared to the aqueous phase [3] | logD at 50 µM [3] | further results
CC(=O)Nc1ccn([C@@H]2O[C@H](CO[Si](C)(C)C(C)(C)C)[C@@]3(OS(=O)(=O)C=C3N)[C@H]2O[Si](C)(C)C(C)(C)C)c(=O)n1 [Compound 15, {4-N-Acetyl-1-[2', 5'-bis-O-(tert-butyldimethylsilyl)-β-D-ribofuranosyl]cytosine}-3'-spiro-5"-{4"-amino-1",2"-oxathiole-2",2"-dioxide}] | 0.097 (≈ 0.157 µM) | 77 | 7.5 (≈ 12.2 µM) | more than 95% | > 1.3 | 
CCc1cn([C@@H]2O[C@H](CO[Si](C)(C)C(C)(C)C)[C@@]3(OS(=O)(=O)C=C3N)[C@H]2O[Si](C)(C)C(C)(C)C)c(=O)[nH]c1=O [Compound 10, {1-[2', 5'-Bis-O-(tert-butyldimethylsilyl)-β-D-ribofuranosyl]-5-ethyl-uracil}-3'-spiro-5"-{4"-amino-1",2"-oxathiole-2",2"-dioxide}] | 0.038 (≈ 0.0629 µM) | 82 | 3.2 (≈ 5.3 µM) |  |  | decrease of antiviral activity on delayed addition ([4]; addition delayed by 17-24 hours, data not shown): 10 fold; antiviral activity on delayed addition ([4]; addition delayed by 41 to 48 hours): almost totally lost
Cc1cn([C@@H]2O[C@H](CO[Si](C)(C)C(C)(C)C)[C@@]3(OS(=O)(=O)C=C3N)[C@H]2O)c(=O)[nH]c1=O [Compound 3] | > 20 | < 2 | 45 (≈ 94.6 µM) | more than 95% | > 1.3 | 
CC(C)=CCn1c(=O)c(C)cn([C@@H]2O[C@H](CO[Si](C)(C)C(C)(C)C)[C@@]3(OS(=O)(=O)C=C3N)[C@H]2O[Si](C)(C)C(C)(C)C)c1=O [Compound 9, {1-[2', 5'-Bis-O-(tert-butyldimethylsilyl)-β-D-ribofuranosyl]-3-N-(3-methyl-2-butenyl)-thymine}-3'spiro-5"-{4"-amino-1", 2"-oxathiole-2", 2"-dioxide}] | 0.239 (≈ 0.363 µM) | 252 | 73 (≈ 111 µM) |  |  | IC50 [5, 11]: > 100 µg/mL; IC50 [5, 12]: > 100 µg/mL; IC50 [5, 13]: > 100 µg/mL; IC50 [6, 14]: > 100 µg/mL; IC50 [6, 15]: > 100 µg/mL; IC50 [7]: > 100 µg/mL; activity against HIV-2 strain (EHO) [8]: inactive; inhibition of incorporation of dThd, dUrd, dCyd, Urd, Cyd or leucine [9]: did not markedly inhibit; cytotoxicity to MT-4 cells (in words) [10]: not cytotoxic
Cc1cn([C@@H]2O[C@H](COC(=O)c3ccccc3)[C@@]3(OS(=O)(=O)C=C3N)[C@H]2O[Si](C)(C)C(C)(C)C)c(=O)[nH]c1=O [Compound 4] | > 8 | < 2,5 | 20 (≈ 34.5 µM) | more than 95% | > 1.3 | 
CC(C)(C)[Si](C)(C)OC[C@H]1O[C@@H](n2cnc3c(N)ncnc32)[C@H](O[Si](C)(C)C(C)(C)C)[C@]12OS(=O)(=O)C=C2N [Compound 17] | 0.162 (≈ 0.271 µM) | 45 | 7.3 (≈ 12.2 µM) |  |  | activity against HIV-2 strain (EHO) [8]: inactive
C=CCn1c(=O)ccn([C@@H]2O[C@H](CO[Si](C)(C)C(C)(C)C)[C@@]3(OS(=O)(=O)C=C3N)[C@H]2O[Si](C)(C)C(C)(C)C)c1=O [Compound 13, {1-[2', 5'-Bis-O-(tert-butyldimethylsilyl)-62 -D-ribofuranosyl]-3-N-allyl-uracil}-3'-spiro-5"-{4"-amino-1", 2"-oxathiole-2", 2"-dioxide}] | 0.364 (≈ 0.591 µM) | 15 | 5.31 (≈ 8.62 µM) |  |  | 
Cc1cn([C@@H]2O[C@H](CO)[C@@]3(OS(=O)(=O)C=C3N)[C@H]2O[Si](C)(C)C(C)(C)C)c(=O)[nH]c1=O [Compound 2] | > 40 | < 2,5 | 106 (≈ 223 µM) | more than 95% | > 1.3 | 
C=CCn1c(=O)c(C)cn([C@@H]2O[C@H](CO[Si](C)(C)C(C)(C)C)[C@@]3(OS(=O)(=O)C=C3N)[C@H]2O[Si](C)(C)C(C)(C)C)c1=O [Compound 8, {1-[2', 5'-Bis-O-(tert-butyldimethylsilyl)-β-D-ribofuranosyl]-3-N-allyl-thymine}-3'-spiro-5"{4"-amino-1", 2"-oxathiole-2", 2"-dioxide}] | 0.141 (≈ 0.224 µM) | > 1418 | > 200 | more than 95% | > 1.3 | IC50 [5, 11]: > 100 µg/mL; IC50 [5, 12]: > 100 µg/mL; IC50 [5, 13]: > 100 µg/mL; IC50 [6, 14]: > 100 µg/mL; IC50 [6, 15]: > 100 µg/mL; IC50 [7]: > 100 µg/mL; inhibition of incorporation of dThd, dUrd, dCyd, Urd, Cyd or leucine [9]: did not markedly inhibit; cytotoxicity to MT-4 cells (in words) [10]: not cytotoxic
CC(C)(C)[Si](C)(C)OC[C@H]1O[C@@H](n2ccc(=O)[nH]c2=O)[C@H](O[Si](C)(C)C(C)(C)C)[C@]12OS(=O)(=O)C=C2N [Compound 11, {1-[2', 5'-Bis-O-(tert-butyldimethylsilyl)-β-D-ribofuranosyl]uracil}-3'-spiro-5"-{4"-amino-1", 2"-oxathiole-2", 2"-dioxide}] | 0.114 (≈ 0.198 µM) | 73 | 8.3 (≈ 14.4 µM) | more than 95% | > 1.3 | IC50 [5, 11]: 18 µg/mL (≈ 31.3 µM); IC50 [5, 12]: 12 µg/mL (≈ 20.8 µM); IC50 [5, 13]: 38 µg/mL (≈ 66 µM); IC50 [6, 14]: 11 µg/mL (≈ 19.1 µM); IC50 [6, 15]: 11 µg/mL (≈ 19.1 µM); IC50 [7]: 14 µg/mL (≈ 24.3 µM); inhibition of incorporation of precursors relative to inhibition of MT-4 cell proliferation ([9]; Table 2 discussion): equally inhibitory; preferential inhibition of incorporation of one precursor over the others ([9]; Table 2 discussion): neither; inhibition of incorporation of dThd, dUrd, dCyd, Urd, Cyd or leucine [9]: did not markedly inhibit; inhibition of MT-4 cell proliferation (in words) [10]: inhibitory to MT-4 cell proliferation; cytotoxicity to MT-4 cells (in words) [10]: not cytotoxic
CC(C)(C)[Si](C)(C)OC[C@H]1O[C@@H](n2cc(Br)c(=O)[nH]c2=O)[C@H](O[Si](C)(C)C(C)(C)C)[C@]12OS(=O)(=O)C=C2N [Compound 12] | 0.206 (≈ 0.315 µM) | 11 | 2.35 (≈ 3.59 µM) |  |  | activity against HIV-2 strain (EHO) [8]: inactive
Cc1cn([C@@H]2O[C@H](CO)[C@@]3(OS(=O)(=O)C=C3N)[C@H]2O)c(=O)[nH]c1=O [Compound 1] |  |  | > 100 |  | -0.932 | EC50 ([1]; Table 1, HIV-1 in MT-4 cells, 5 days, read-out: EC50): > 100 µg/mL
